Measured values: patent US10168342B2, “Lipid probes and uses thereof” (THE SCRIPPS RESEARCH INSTITUTE, priority 2015, dated 2019)
Like-named read-outs stand apart in the source and are kept apart here.

Tests used:
[1] = target: T1, AEA-DA lipid probe targets in Neuro2a cells (Mus musculus, UniProt Q9D6K9)
T1 sequence (Q9D6K9 1-414): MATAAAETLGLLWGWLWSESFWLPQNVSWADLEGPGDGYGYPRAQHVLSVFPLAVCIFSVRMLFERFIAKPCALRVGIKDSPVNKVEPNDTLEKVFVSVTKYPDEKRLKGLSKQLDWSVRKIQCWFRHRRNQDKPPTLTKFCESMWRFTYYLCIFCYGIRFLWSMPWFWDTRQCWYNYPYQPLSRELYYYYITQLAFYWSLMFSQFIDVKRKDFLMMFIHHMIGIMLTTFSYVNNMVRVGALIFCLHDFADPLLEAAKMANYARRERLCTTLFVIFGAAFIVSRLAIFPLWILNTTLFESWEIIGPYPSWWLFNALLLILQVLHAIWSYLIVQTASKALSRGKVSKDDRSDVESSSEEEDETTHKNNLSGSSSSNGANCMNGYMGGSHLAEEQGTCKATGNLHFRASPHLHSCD

[2] = target: T2, AEA-DA lipid probe targets in Neuro2a cells (Mus musculus, UniProt Q8VHE0)
T2 sequence (Q8VHE0 1-760): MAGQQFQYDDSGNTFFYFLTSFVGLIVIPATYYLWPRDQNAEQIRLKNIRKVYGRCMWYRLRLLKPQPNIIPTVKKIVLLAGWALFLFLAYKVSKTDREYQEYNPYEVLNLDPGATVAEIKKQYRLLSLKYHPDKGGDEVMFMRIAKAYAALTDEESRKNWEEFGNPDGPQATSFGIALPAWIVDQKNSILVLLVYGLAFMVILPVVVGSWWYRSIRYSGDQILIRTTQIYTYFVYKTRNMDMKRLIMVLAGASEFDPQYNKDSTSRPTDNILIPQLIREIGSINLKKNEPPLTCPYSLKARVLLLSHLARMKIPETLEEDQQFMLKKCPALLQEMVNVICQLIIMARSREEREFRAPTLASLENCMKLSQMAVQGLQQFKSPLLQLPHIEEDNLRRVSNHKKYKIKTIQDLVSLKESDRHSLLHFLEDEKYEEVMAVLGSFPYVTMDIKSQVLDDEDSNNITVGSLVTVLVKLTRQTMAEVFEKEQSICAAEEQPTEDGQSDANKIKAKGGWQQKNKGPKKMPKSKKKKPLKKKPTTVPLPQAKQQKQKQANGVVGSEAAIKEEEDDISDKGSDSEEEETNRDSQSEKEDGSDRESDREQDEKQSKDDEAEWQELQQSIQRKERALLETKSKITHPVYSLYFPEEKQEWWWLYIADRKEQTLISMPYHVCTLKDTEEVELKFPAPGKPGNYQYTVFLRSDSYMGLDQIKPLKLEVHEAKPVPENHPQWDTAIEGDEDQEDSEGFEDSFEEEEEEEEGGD

[3] = target: T3, AEA-DA lipid probe targets in Neuro2a cells (Mus musculus, UniProt P10649)
T3 sequence (P10649 1-218): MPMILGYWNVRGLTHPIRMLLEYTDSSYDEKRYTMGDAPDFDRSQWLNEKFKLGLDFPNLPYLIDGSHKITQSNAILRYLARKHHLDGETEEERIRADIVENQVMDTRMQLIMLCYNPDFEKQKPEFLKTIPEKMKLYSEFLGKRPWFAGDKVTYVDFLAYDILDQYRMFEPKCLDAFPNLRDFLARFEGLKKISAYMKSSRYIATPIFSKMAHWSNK

[4] = target: T4, AEA-DA lipid probe targets in Neuro2a cells (Mus musculus, UniProt O35114)
T4 sequence (O35114 1-478): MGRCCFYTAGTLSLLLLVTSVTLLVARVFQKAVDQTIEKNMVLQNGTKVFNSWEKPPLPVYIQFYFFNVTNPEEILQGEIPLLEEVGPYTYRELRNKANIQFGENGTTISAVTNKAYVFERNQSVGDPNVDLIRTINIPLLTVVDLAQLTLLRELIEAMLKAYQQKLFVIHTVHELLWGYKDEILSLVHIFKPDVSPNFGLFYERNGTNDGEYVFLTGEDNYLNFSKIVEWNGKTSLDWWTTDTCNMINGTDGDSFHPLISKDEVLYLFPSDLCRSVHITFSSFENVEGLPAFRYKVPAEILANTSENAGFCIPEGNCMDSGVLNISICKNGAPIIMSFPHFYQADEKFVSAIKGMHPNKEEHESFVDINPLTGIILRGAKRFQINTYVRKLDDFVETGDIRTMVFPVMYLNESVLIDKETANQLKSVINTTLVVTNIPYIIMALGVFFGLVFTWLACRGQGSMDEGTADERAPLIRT

[5] = target: T5, AEA-DA lipid probe targets in Neuro2a cells (Mus musculus, UniProt Q9WV54)
T5 sequence (Q9WV54 19-394): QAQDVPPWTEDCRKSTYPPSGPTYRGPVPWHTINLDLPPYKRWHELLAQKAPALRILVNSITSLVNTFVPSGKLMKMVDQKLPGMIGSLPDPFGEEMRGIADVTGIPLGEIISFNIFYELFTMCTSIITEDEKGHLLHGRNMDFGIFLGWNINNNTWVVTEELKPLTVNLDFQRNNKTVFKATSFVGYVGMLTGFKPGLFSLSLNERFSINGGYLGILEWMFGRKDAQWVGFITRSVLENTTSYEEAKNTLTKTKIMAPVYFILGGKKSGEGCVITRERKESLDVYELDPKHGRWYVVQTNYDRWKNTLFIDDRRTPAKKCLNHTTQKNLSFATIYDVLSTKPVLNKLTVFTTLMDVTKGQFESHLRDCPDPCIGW

Compound | SILAC ratio, Cers5 ([1]; competitor 25 μM) | SILAC ratio Sec63 ([2]; competitor 25 μM) | SILAC ratio, Gstm1 ([3]; competitor 25 μM) | SILAC ratio Scarb2 ([4]; competitor 25 μM) | SILAC ratio Asah1 ([5]; competitor 25 μM) | also measured
CCCCC/C=C\C/C=C\C/C=C\C/C=C\CCCC(=O)NCCO [AEA, anandamide, reference compound] | – | – | – | – | – | SILAC ratio, Cers5 ([1]; competitor 200 μM): 2.1; SILAC ratio Sec63 ([2]; competitor 200 μM): 1.5; SILAC ratio, Gstm1 ([3]; competitor 200 μM): 2.3; SILAC ratio Scarb2 ([4]; competitor 200 μM): 1.5; SILAC ratio Asah1 ([5]; competitor 200 μM): 0.8
O=C(/C=C/c1cccnc1)NCCCCC1CCN(C(=O)c2ccccc2)CC1 [FK-866, reference compound] | 1.1 | 1.1 | 1.5 | 1.1 | 1.3 | –
CN1CCN(C(=O)c2c(-c3ccccc3)c3cc([N+](=O)[O-])ccc3n2C)CC1 [KML110, (1-Methyl-5-nitro-3-phenyl-1H-indol-2-yl)(4-methylpiperazin-1-yl)methanone] | 1.6 | 1.5 | 2.2 | 1.3 | 1.2 | –
CN1CCN(C(=O)c2[nH]c3ccc([N+](=O)[O-])cc3c2-c2ccccc2)CC1 [MJN228, (4-Methylpiperazin-1-yl)(5-nitro-3-phenyl-1H-indol-2-yl)methanone] | 1.8 | 1.5 | 1.7 | 1.5 | 1.6 | SILAC ratio, Cers5 ([1]; competitor 10 μM): 1.2; SILAC ratio, Cers5 ([1]; competitor 50 μM): 2.1; SILAC ratio, Cers5 ([1]; competitor 100 μM): 3.0; SILAC ratio Sec63 ([2]; competitor 10 μM): 1.4; SILAC ratio Sec63 ([2]; competitor 50 μM): 1.8; SILAC ratio Sec63 ([2]; competitor 100 μM): 1.8; SILAC ratio, Gstm1 ([3]; competitor 10 μM): 1.7; SILAC ratio, Gstm1 ([3]; competitor 50 μM): 2.1; SILAC ratio, Gstm1 ([3]; competitor 100 μM): 2.6; SILAC ratio Scarb2 ([4]; competitor 10 μM): 1.3; SILAC ratio Scarb2 ([4]; competitor 50 μM): 1.7; SILAC ratio Scarb2 ([4]; competitor 100 μM): 1.9; SILAC ratio Asah1 ([5]; competitor 10 μM): 1.4; SILAC ratio Asah1 ([5]; competitor 50 μM): 2.2; SILAC ratio Asah1 ([5]; competitor 100 μM): 2.1
C=CCN(C)CCCCCCOc1ccc(C(=O)c2ccc(Br)cc2)c(F)c1 [Ro 48-8071, reference compound] | 1.3 | 1.0 | 1.4 | 1.1 | 1.0 | –
